According to patent US10138510B2, “Dual labeling methods for measuring cellular proliferation” (LIFE TECHNOLOGIES CORPORATION, priority 2008, dated 2018):

Columns and labels:
Type in all cases: cell-based
[1] = tested on: newly synthesized DNA of cells; assay: Simultaneous EdU and BrdU pulse, incorporation into DNA detected by flow cytometry; conditions: for signal detected after simultaneous pulse: simultaneous pulse of EdU 20 μM and BrdU 10 μM, FIG. 3B
Description: FIG. 3A-1, FIG. 3A-2 and FIG. 3A-3 present a series of graphs showing populations of cells treated with a first pulse label of EdU (10 μm) and a second pulse label of BrdU (10 μm) as detected by flow cytometry. The first graph (FIG. 3A-1) is divided into four quadrants with the first quadrant (Q1) located in the upper left hand corner, the second quadrant (Q2) located in the upper right hand corner, the third quadrant (Q3) located in the lower left hand corner, and the fourth quadrant (Q4) located in the lower right hand corner. Populations of cells in quadrant Q3 (lower left) are negative for both EdU (first pulse) and BrdU (second pulse). Populations of cells in quadrant Q2 (upper right) are positive for both EdU (first pulse) and BrdU (second pulse). FIG. 3A-2 is a graph of EdU vs. DNA cell cycle with gating P5>P1. […] FIG. 3B presents a graph showing populations of cells treated with simultaneous pulse of EdU at a concentration of 20 μM and BrdU at a concentration of 10 μM as detected by flow cytometry. The graph is divided into four quadrants with the first quadrant (Q1) located in the upper left hand corner, the second quadrant (Q2) located in the upper right hand corner, the third quadrant (Q3) located in the lower left hand corner, and the fourth quadrant (Q4) located in the lower right hand corner. Populations of cells in quadrant Q3 (lower left) are negative for both EdU and BrdU. Populations of cells in quadrant Q2 (upper right) are positive for both EdU and BrdU.
FIG. 5A, FIG. 5B, FIG. 5C and FIG. 5D present a series of graphs showing that when cells are treated with EdU and BrdU simultaneously, only a population of DNA labeled with BrdU is detected by flow cytometry. […] The third and fourth graphs (FIGS. 5C and 5D, respectively) show the dual parameter plot of fluorescent nucleotide label vs. DNA cell cycle treated with EdU and BrdU simultaneously. Only BrdU was incorporated into cells treated simultaneously with EdU and BrdU, as shown in the third and fourth graphs. […]

[2] = tested on: Jurkat T-cell lymphocyte cells; assay: Dual pulse EdU/BrdU labeling of cellular proliferation after colchicine cell cycle block, flow cytometry
Protocol: A standard method of preparing cultured cells for the measurement of newly synthesized DNA (cellular proliferation) is set up according to known conditions for cells to be actively growing by providing the proper media and nutrient requirements. In the present example, Jurkat T-cell lymphocyte cell cultures were diluted one to four to a density of 2×10^5 cells/ml. The cultures were treated with a cell cycle blocking agent, colchicine, which stops proliferation at the G2M stage of the cell cycle, at concentrations of 0, 32 nM, 75 nM, 125 nM, 250 nM, 500 nM and 1 μM for 18 hours. To each condition, the first nucleoside analog, EdU, was then added at 10 μM, a concentration appropriate for incorporation in the DNA of cells undergoing DNA synthesis. The cells were grown in the presence of EdU for one hour. The cells were then centrifuged to pellet the cells and remove the media with blocking agent, and cells had replacement of fresh media. The cell cultures were allowed to recover for two hours before an appropriate amount of the second nucleoside analog, BrdU, was added at a 10 μM concentration, and the cells were grown for one hour. The cells were then harvested, washed, fixed with 70% ice-cold ETOH and stored at 4° C. until use. The cells were then washed and resuspended in 4M HCL for 20 minutes at room temperature. A phosphate/critric acid buffer was added, and the cells washed twice and resuspended in 0.1% TritonX/1% BSA/PBS at 1×10^7/ml. Then, labeling of the EdU was performed by adding click chemistry based reagents, including a solution comprised of CuSO4 in Tris-buffered saline and Alexa Fluor® 647-azide (650 nm excitation maxima/670 nm emission maxima) (Molecular Probes™/Invitrogen™, Carlsbad, Calif.). The cells were then washed with 0.1% TritonX/1% BSA/PBS. […]
A series of result graphs labeled FIGS. 12-1A, 12-1B, 12-1C, 12-1D, 12-1E, 12-2F, 12-2G, 12-2H, 12-2I and 12-2J show populations of cells treated with a first pulse label of EdU (20 μM) and a second pulse label of BrdU (10 μm) as detected by flow cytometry. […]

[3] = tested on: TF-1a human erythroblast cells; assay: Dual pulse EdU/BrdU labeling of cellular proliferation with varying GM-CSF, flow cytometry
Protocol: A standard method of preparing cultured cells for the measurement of newly synthesized DNA (cellular proliferation) is set up according to known conditions for cells to be actively growing by providing the proper media and nutrient requirements. In the present example, TF-1a human erythroblast cell cultures were diluted one to four to a density of 2×10^5 cells/ml. Culture media contains varying amounts of GM-CSF, or granulocyte-macrophage colony-stimulating factor, at amounts equal to full (2 ng/ml) or ¼ (0.5 ng/ml) recommended concentration of GM-CSF, and no GM-CSF. After these cells had been growing 18 hours, the first nucleoside analog, EdU, was added at 20 μM, a concentration appropriate for incorporation in the DNA of cells undergoing DNA synthesis. The cells were grown in the presence of EdU for three hours. After initial period of growth and without the removal of EdU through the washing of the cells in fresh media, an appropriate amount of the competitive nucleoside analog, BrdU, was added at a 10 μM concentration, and GM-CSF was added at the same time as the BrdU in amounts to equal the full amount recommended for GM-CSF concentration of 2 ng/ml or kept at the same initial concentration of GM-CSF. The cells were grown for six hours. The cells were then harvested, washed, fixed with 70% ice-cold ETOH and stored at 4° C. until use. The cells were then washed and resuspended in 4M HCL for 20 minutes at room temperature. A phosphate/critric acid buffer was added, and the cells washed twice and resuspended in 0.1% TritonX/1% BSA/PBS at 1×10^7/ml. Then, labeling of the EdU was performed by adding click chemistry based reagents, including a solution comprised of CuSO4 in Tris-buffered saline and Alexa Fluor® 647-azide (650 nm excitation maxima/670 nm emission maxima) (Molecular Probes™/Invitrogen™, Carlsbad, Calif.). The cells were then washed with 0.1% TritonX/1% BSA/PBS. After this, labeling of the BrdU was performed using the anti-BrdU antibody FITC conjugate (494 nm excitation maxima/518 nm emission maxima) (Exalpha Biologicals, Inc., Maynard Calif.). To detect DNA content, a nucleic acid dye, DAPI (358 nm excitation maxima/461 nm emission maxima) (Molecular Probes™/Invitrogen™, Carlsbad, Calif.) was added. Detection of the three labels was performed by flow cytometry. To detect the BrdU label, 488 nm excitation was used, with a 530/30 nm bandpass. To detect the EdU label, 633 nm excitation was used, with a 660/20 nm bandpass. To detect DNA content, 355 nm excitation was used, with a 450/50 nm bandpass.

[4] = GM-CSF 0.5 ng/ml with EdU pulse, 0.5 ng/ml with BrdU pulse
[5] = GM-CSF 0.5 ng/ml with EdU pulse, 2 ng/ml with BrdU pulse
[6] = GM-CSF 2 ng/ml (control) with EdU pulse, 2 ng/ml (control) with BrdU pulse, EdU 20 μM 3 h, BrdU 10 μM 6 h
[7] = no GM-CSF with EdU pulse, GM-CSF 2 ng/ml with BrdU pulse

C#Cc1cn([C@H]2C[C@H](O)[C@@H](CO)O2)c(=O)[nH]c1=O [EdU, 5-ethynyl 2′-deoxyuridine]
signal detected after simultaneous pulse [1]: no signal detected

COc1cc2c(c(OC)c1OC)-c1ccc(OC)c(=O)cc1[C@@H](NC(C)=O)CC2 [colchicine]
proliferation (EdU and BrdU positive events) vs control ([2]; 32 nM colchicine for 18 hours before the first pulse, FIGS. 12-2F to 12-2J): decreased proliferation
proliferation with both pulses of EdU and BrdU ([2]; all colchicine concentrations (32 nM to 1 μM), 18 hours, FIG. 11): decreased proliferation
recovery of proliferation after removal of colchicine (second pulse of BrdU) ([2]; any colchicine concentration, two hours recovery in fresh media): no recovery

GM-CSF: granulocyte-macrophage colony-stimulating factor, growth factor in TF-1a culture media
proliferative recovery of cells ([3]; 0.5 ng/ml GM-CSF, addition of GM-CSF to 2 ng/ml with the BrdU pulse): does not show any proliferative recovery
% BrdU Pos [3, 4]: 66.3%
% EdU Pos [3, 4]: 57%
% BrdU Pos [3, 5]: 65.1%
% EdU Pos [3, 5]: 57.5%
% BrdU Pos [3, 6]: 72.2%
% EdU Pos [3, 6]: 53.9%
proliferation over control ([3]; dual pulse with 0.5 ng/ml GM-CSF vs 2 ng/ml control): only a slight decrease of proliferation over control
% BrdU Pos [3, 7]: 53%
% EdU Pos [3, 7]: 42.3%
proliferative recovery of cells (BrdU positivity) ([3]; no GM-CSF with EdU pulse, GM-CSF added with just the BrdU pulse): some proliferative recovery

O=c1[nH]c(=O)n([C@H]2C[C@H](O)[C@@H](CO)O2)cc1Br [BrdU, 5-bromo 2′-deoxyuridine]
incorporation into DNA in the presence of both nucleoside analogs ([1]; EdU and BrdU added simultaneously, Example 3, FIGS. 5A-5D): only the BrdU analog is incorporated into the DNA
signal detected after simultaneous pulse [1]: only positive signal detected from the BrdU
